Reference: US9139502B2, “Use of an urushiol compound in preparation of pharmaceutical compositions for inhibiting Smad3 phosphorylation” (Southern Hospital, Southern Medical University, priority 2013, dated 2015)

Experiments:
[1] = tested on: fibronectin; assay: Real-time PCR of TGF-β1-induced fibronectin mRNA in vitro; assay type: cell-based, rat; details: NRK 52E and NRK 49F cells, GQ-5 0.1-2.5 μM pre-treated 1 h, TGF-β1 10 ng/ml 36 h
Experimental: (§1) NRK52E and NRK49F cells were cultured in DMEM-Ham's medium supplemented with 10% fetal bovine serum. The cells reached at approximately 50% confluence were used for in vitro experiments. Cells were serum-starved for 12 h, and randomized into 6 groups: (1) Controls; (2) GQ-5 only; (3) TGF-β1 only; (4) TGF-β1+GQ-5 0.1 μM; (5) TGF-β1+GQ-5 0.5 μM; (6) TGF-β1+GQ-5 2.5 μM
(§2) (2) GQ-5 only: pre-treated with GQ-5 (2.5 μM) for 1 h, followed with DMEM for 36 h
(§3) (3) TGF-β1 only: pre-treated with DMSO for 1 h, followed with TGF-β1 (10 ng/ml) for 36 h
(§4) (4) TGF-β1+GQ-5 0.1 μM: pre-treated with GQ-5 (0.1 μM) for 1 h, followed with TGF-β1 (10 ng/ml) for 36 h
(§5) (5) TGF-β1+GQ-5 0.5 μM: pre-treated with GQ-5 (0.5 μM) for 1 h, followed with TGF-β1 (10 ng/ml) for 36 h
(§6) (6) TGF-β1+GQ-5 2.5 μM: pre-treated with GQ-5 (2.5 μM) for 1 h, followed with TGF-β1 (10 ng/ml) for 36 h
(§7) GQ-5 was dissolved in DMSO. Cells were treated as described. Cells were collected for mRNA extraction. Real-rime PCR was performed to examine the mRNA expression of α-SMA, collagen I and fibronectin.

[2] = tested on: p38; assay: Western blot of TGF-β1-induced p38 phosphorylation in vitro; assay type: cell-based, rat; details: NRK52E and NRK49F cells, GQ-5 2.5 nM pre-treated 1 h, TGF-β1 10 ng/ml 1 h
Experimental: NRK52E and NRK49F cells were cultured in DMEM-Ham's medium (Gibco, Life Techologies, NY, USA) supplemented with 10% fetal bovine serum (Gibco, Life Techologies, NY, USA). The cells reached at approximately 50% confluence were used for in vitro experiments. Cells were serum-starved for 12 h, and randomized into 4 groups: (1) Controls; (2) GQ-5 only; (3) TGF-β1 only; (4) TGF-β1+GQ-5
(2) GQ-5 only: pre-treated with GQ-5 (2.5 μM) for 1 h, followed with DMEM for 1 h
(3) TGF-β1 only: pre-treated with DMSO (0.1%) for 1 h, followed with TGF-β1 (10 ng/ml) for 1 h
(4) TGF-β1+GQ-5: pre-treated with GQ-5 (2.5 nM) for 1 h, followed with TGF-β1 (10 ng/ml) for 1 h
GQ-5 was dissolved in DMSO. Cells were treated as described. cell lysates were immunoblotted with antibodies against Smad4, Smad7, phospho-p38, p38, phospho-PI3K, PI3K, phosphor-ERK, and ERK.

[3] = tested on: p38; assay: Western blot of p38 phosphorylation in UUO kidneys; assay type: in vivo, rat; details: UUO rats, GQ-5 40 mg/kg daily i.p. right after UUO, sacrificed day 14
Experimental: (§8) Male Sprague-Dawley rats with body weight 200 to 250 g were randomized into 3 groups (n=6 in each group): (1) sham operated rats; (2) UUO rats; (3) UUO+GQ-5 rats.
(§9) GQ-5 was dissolved in 5% propylene glycol.
(§10) (3) UUO+GQ-5 rats: daily intraperitoneal injection of GQ-5 (40 mg/kg body weight) right after UUO;
(§11) UUO was performed using an established protocol as described. GQ-5 was dissolved in 5% propylene glycol. Rats were administrated with GQ-5 as described before. All the rats were sacrificed 14 days after UUO. Western blot analyses were performed to examine the Smad4, Smad7 expression and p38, PI3K, ERK phosphorylation.

[4] = tested on: Smad4; assay: Western blot of Smad4 expression in UUO kidneys; assay type: in vivo, rat; details: UUO rats, GQ-5 40 mg/kg daily i.p. right after UUO, sacrificed day 14
Experimental: as §8, §9, §10, §11

[5] = tested on: Smad2 phosphorylation; assay: Smad2 phosphorylation in kidney tissue of UUO rats (immunohistochemistry, Western blot); assay type: in vivo, rat; details: GQ-5 40 mg/kg daily i.p. right after or 7 days after UUO, sacrificed day 14
Experimental: Male Sprague-Dawley rats with body weight 200 to 250 g were randomized into 4 groups (n=6 in each group): (1) sham operated rats; (2) UUO rats; (3) UUO+GQ-5 d1 rats; (4) UUO+GQ-5 d7 rats.
as §9
(3) UUO+GQ-5 d1 rats: daily intraperitoneal injection of GQ-5 (40 mg/kg body weight) right after UUO;
(4) UUO+GQ-5 d7 rats: daily intraperitoneal injection of GQ-5 (40 mg/kg body weight) 7 days after UUO.
as §11, with “UUO. Immunohistochemical staining and” for “UUO.”, “Smad3” for “Smad4, Smad7 expression”, “Smad2 phosphorylation in kidney tissue.” for “p38, PI3K, ERK phosphorylation.”

[6] = tested on: collagen I; assay: Western blot of TGF-β1-induced collagen I protein in vitro; assay type: cell-based, rat; details: NRK 52E and NRK 49F cells, GQ-5 0.1-2.5 μM pre-treated 1 h, TGF-β1 10 ng/ml 48 h
Experimental: as §1
(§12) (2) GQ-5 only: pre-treated with GQ-5 (2.5 μM) for 1 h, followed with DMEM for 48 h
(§13) (3) TGF-β1 only: pre-treated with DMSO for 1 h, followed with TGF-β1 (10 ng/ml) for 48 h
(§14) (4) TGF-β1+GQ-5 0.1 μM: pre-treated with GQ-5 (0.1 μM) for 1 h, followed with TGF-β1 (10 ng/ml) for 48 h
(§15) (5) TGF-β1+GQ-5 0.5 μM: pre-treated with GQ-5 (0.5 μM) for 1 h, followed with TGF-β1 (10 ng/ml) for 48 h
(§16) (6) TGF-β1+GQ-5 2.5 μM: pre-treated with GQ-5 (2.5 μM) for 1 h, followed with TGF-β1 (10 ng/ml) for 48 h
(§17) GQ-5 was dissolved in DMSO. Cells were treated as described. Cells lysates were immunebloted with antibodies against α-SMA, collagen I and fibronectin.

[7] = tested on: Smad2; assay: Immunofluorescence staining of Smad2 nuclear translocation; assay type: cell-based, rat; details: NRK52E cells, GQ-5 2.5 μM pre-treated 1 h, TGF-β1 10 ng/ml 2 h
Experimental: (§18) NRK52E cells were cultured in DMEM-Ham's medium supplemented with 10% fetal bovine serum. The cells reached at approximately 50% confluence were used for in vitro experiments. Cells were serum-starved for 12 h, and randomized into 3 groups: (1) Controls; (2) TGF-β1 only; (3) TGF-β1+GQ-5.
(§19) (2) TGF-β1 only: pre-treated with DMSO for 1 h, followed with TGF-β1 (10 ng/ml) for 2 h
(§20) (3) TGF-β1+GQ-5: pre-treated with GQ-5 (2.5 μM) for 1 h, followed with TGF-β1 (10 ng/ml) for 2 h
(§21) GQ-5 was dissolved in DMSO. Cells were treated as described Immunofluorescence staining was performed to examine the nuclear translocation of Smad2, Smad3, and Smad4.

[8] = tested on: α-SMA; assay: Real-time PCR of TGF-β1-induced α-SMA mRNA in vitro; assay type: cell-based, rat; details: NRK 52E and NRK 49F cells, GQ-5 0.1-2.5 μM pre-treated 1 h, TGF-β1 10 ng/ml 36 h
Experimental: as §1, §2, §3, §4, §5, §6, §7

[9] = tested on: α-SMA; assay: Western blot of TGF-β1-induced α-SMA protein in vitro; assay type: cell-based, rat; details: NRK 52E and NRK 49F cells, GQ-5 0.1-2.5 μM pre-treated 1 h, TGF-β1 10 ng/ml 48 h
Experimental: as §1, §12, §13, §14, §15, §16, §17

[10] = tested on: Smad3; assay: Immunofluorescence staining of TGF-β1-induced Smad3 nuclear translocation; assay type: cell-based, rat; details: NRK52E cells, GQ-5 2.5 μM pre-treated 1 h, TGF-β1 10 ng/ml 2 h
Experimental: as §18, §19, §20, §21

CCCCCC/C=C\CCCCCCCc1cccc(O)c1O [GQ-5, 3-[(Z)-pentadec-8-enyl]catechol]
TGF-β1-induced mRNA expression of fibronectin [1]: significantly inhibited
TGF-β1-induced phosphorylation of p38 [2]: did not affect
phosphorylation of p38 [3]: did not affect
expression of Smad4 [4]: did not affect
Smad2 phosphorylation in renal tissue [5]: not Smad2
TGF-β1-induced protein expression of collagen I [6]: significantly inhibited
nuclear translocation of Smad2 [7]: also reduced
TGF-β1-induced mRNA expression of α-SMA [8]: significantly inhibited
TGF-β1-induced protein expression of α-SMA [9]: significantly inhibited
TGF-β1-induced Smad3 nuclear translocation [10]: significantly reduced
